This note sets out measurements from a melting point compilation (Tetko et al.; mined from patent text by program, amines drawn as free bases though some values may be those of a salt).

For orientation: melting point means the temperature, or range, at which the solid turns liquid.

Bounds are passed on as bounds.

In the case of `O=C(NC(Cc1ccccc1)C(=O)O)c1ccc2cc(OCc3ccccc3)ccc2c1` (centres undefined), the melting point came out at 207 °C.
The figure for `O=C(O)COCc1cccc(-c2ccccc2OC2OC(CO)C(O)C(O)C2O)c1` (centres undefined) is 77 to 78 °C.
Take `CCC(S)=C1SC(=S)N(c2ccc(Cl)cc2)C1=O`: the melting point was in the range of 163 to 165 °C.
`COC(=O)c1cccc2[nH]c(-c3ccc(Cl)cc3)cc12`: the melting point fell in the range of 150 to 152 °C.
`Cc1c(C(C)O)cc(C(C)C)c(-c2ccc(O)cc2)c1Cl` (centres undefined) returned a melting point of 220 to 222 °C.
As for `COc1cc(C(=O)N(C(C)C)C2CCCCC2)ccc1Br`, the melting point lay in the range of 104 to 107 °C.
Compound `CC(C)(C)NS(=O)(=O)c1sc([Si](C)(C)C)cc1C(F)=C(F)C(F)(F)F` returned a melting point of 92 to 94 °C.
The figure for `O=C(O)c1ccc(CNC(=O)C2Cc3ccccc3N2S(=O)(=O)c2ccc(-c3ccc(F)cc3OC(F)F)cc2)cc1` (centres undefined) is 92 to 97 °C; for `Cn1cc(-c2noc(C(N)CN3CCCCC3)n2)c2ccccc21` (centres undefined) it is 146 to 147 °C.
The figure for `Cc1c(OCc2ccc(F)cc2)cnn(C(C)(C)C)c1=O` is 65 to 66.5 °C; for `NS(=O)(=O)c1cc2[nH]c(=O)c(=O)[nH]c2cc1[N+](=O)[O-]` it is greater than 330 °C; for `O=c1c2ccccc2c(-c2ccc(Cl)cc2)nn1CCc1ccncc1` it is 142 to 144 °C.
The figure for `O=C(O)c1c(C(F)(F)F)nc2ccccc2c1O` is 262 °C; for `O=Cc1ccc(O)c(C=O)n1` it is 144 °C.
Regarding `CCOC(=O)C(C)c1ccc2oc(C(=O)c3ccc(Cl)cc3)nc2c1` (centres undefined), the melting point lay in the range of 66 to 67 °C.
Compound `Cc1[nH]c(=O)c(C#N)cc1-c1ccc(CC(=O)O)cc1` registered a melting point of 280 to 282 °C.
The figure for `CCCN(CCC)c1c([N+](=O)[O-])cc(C#N)c(C)c1[N+](=O)[O-]` is 97 to 99 °C.
Compound `CS(=O)(=O)NNC(=O)c1nc(CS(=O)(=O)c2ccc(Cl)cc2)no1` returned a melting point of 198 to 202 °C.
As for `CCCCCCCCCCCCCCCCCCOc1ccc(OCCCOc2ccc(OCc3ccccc3)cc2)c(C(=O)O)c1`, the melting point lay within 92 to 95 °C.
`CC(=O)Nc1cc2c(cc1[N+](=O)[O-])OC(C)(C)[C@@H](Br)[C@@H]2O` (relative stereo) returned a melting point of 198 to 200 °C.
The figure for `CC(=O)NC(Cc1c[nH]c2ccccc12)C(=O)OCc1cc(C)cc(C)c1` (centres undefined) is 145 to 146 °C; for `Cc1cc(COc2ccc(Oc3ccc(Cl)cc3)cc2)n(O)c(=O)c1` it is 168 to 170 °C; for `COc1ccc(C(=O)Nc2cccc(O)c2NC(=O)c2ccc(OC)cc2)cc1` it is 208 to 209 °C.
`Cc1ccc(S(=O)(=O)OCCC2CCc3ccccc3O2)cc1` (centres undefined) had a melting point of 57 to 59 °C.
The figure for `CCC(N)(CO)CS(=O)(=O)c1ccccc1C(=O)c1ccccc1` (centres undefined) is 150 to 151 °C.
`Cn1c(=O)cc(-c2cccc(Cl)c2)c2cc(Br)ccc21` gave a melting point of 182 °C.
In turn, `CC(=O)C1=C(O)C(C(=O)C=Cc2ccc(O)cc2)C(=O)OC1=O` (centres undefined) showed a melting point of 194 to 196 °C.
With `CCOc1ccc(C(=O)Nc2ccccc2NC(=O)c2cccc(C(N)=NO)c2)cc1`, the melting point is 180 to 182 °C.
In turn, `C=C(CCC(C)C1CCC2C3=C(C(=O)CC21C)C1(C)CCC(=O)C(C)C1CC3O)C(C)C(=O)O` (centres undefined) registered a melting point of 196 to 198 °C.
With `CC(CNC12CC3CC(CC(C3)C1)C2)N1CCN(c2ccccn2)CC1` (centres undefined), the melting point was in the range of 67 to 68 °C.
For `O=C1c2ccccc2C(c2ccccc2)N1C1CCN(CCC(c2ccccc2)c2ccccc2)CC1` (centres undefined), the melting point was 65 to 69 °C.
Regarding `COc1ccc(-c2cncc(OC3SCC(OC(C)=O)C(OC(C)=O)C3OC(C)=O)c2)cn1` (centres undefined), the melting point worked out at 172 °C.
`CC(C)C(=O)N[C@@H](CSC(=O)c1ccccc1)C(=O)NCCSC(=O)C(C)C`: the melting point was 155 to 157 °C.
The compound `Nc1nc2c(s1)CCN(CC=Cc1ccc(OCc3ccccc3)cc1)CC2` displayed a melting point of 135 to 140 °C.
